Measurements reported in patent EP0022478B1, “Polyhydro-3,7-dimethyl-8-(2-(tetrahydro-4-hydroxy-6-oxo-2H-pyran-2-yl)-ethyl)-1-naphthylenyl-2-methylbutanoates, corresponding hydroxy acids, process for preparing and pharmaceutical compositions containing the same” (Merck & Co., Inc., priority 1979, dated 1981).
Counter-ions that a name gives are not always drawn. Like-named read-outs stand apart in the source and are kept apart here. Values belong to the molecule of their own block, whether it stands above or below them.

How the values were obtained:
[1] = test system: cholesterol synthesis; test: In vivo inhibition of cholesterol synthesis (14C acetate into 14C cholesterol); design: species or system male Holtzman rats; conditions: 14C acetate IP after one hour, bled 50 minutes later
Method: Groups of male Holtzman rats were dosed with either 5% emulphor in saline or test compound in emulphor by stomach tube. After one hour 80 µCi of ^14C acetate/kg was given IP. The rats were bled 50 minutes later and ^14C cholesterol was determined as a measure of sterol synthesis: […]

[2] = molecular target: T1, mouse L―M cells (Mus musculus, UniProt Q01237); test: Inhibition of sterol synthesis in cell culture (14C sterol from 14C acetic acid); type: cell-based
T1 sequence (Q01237 1-887): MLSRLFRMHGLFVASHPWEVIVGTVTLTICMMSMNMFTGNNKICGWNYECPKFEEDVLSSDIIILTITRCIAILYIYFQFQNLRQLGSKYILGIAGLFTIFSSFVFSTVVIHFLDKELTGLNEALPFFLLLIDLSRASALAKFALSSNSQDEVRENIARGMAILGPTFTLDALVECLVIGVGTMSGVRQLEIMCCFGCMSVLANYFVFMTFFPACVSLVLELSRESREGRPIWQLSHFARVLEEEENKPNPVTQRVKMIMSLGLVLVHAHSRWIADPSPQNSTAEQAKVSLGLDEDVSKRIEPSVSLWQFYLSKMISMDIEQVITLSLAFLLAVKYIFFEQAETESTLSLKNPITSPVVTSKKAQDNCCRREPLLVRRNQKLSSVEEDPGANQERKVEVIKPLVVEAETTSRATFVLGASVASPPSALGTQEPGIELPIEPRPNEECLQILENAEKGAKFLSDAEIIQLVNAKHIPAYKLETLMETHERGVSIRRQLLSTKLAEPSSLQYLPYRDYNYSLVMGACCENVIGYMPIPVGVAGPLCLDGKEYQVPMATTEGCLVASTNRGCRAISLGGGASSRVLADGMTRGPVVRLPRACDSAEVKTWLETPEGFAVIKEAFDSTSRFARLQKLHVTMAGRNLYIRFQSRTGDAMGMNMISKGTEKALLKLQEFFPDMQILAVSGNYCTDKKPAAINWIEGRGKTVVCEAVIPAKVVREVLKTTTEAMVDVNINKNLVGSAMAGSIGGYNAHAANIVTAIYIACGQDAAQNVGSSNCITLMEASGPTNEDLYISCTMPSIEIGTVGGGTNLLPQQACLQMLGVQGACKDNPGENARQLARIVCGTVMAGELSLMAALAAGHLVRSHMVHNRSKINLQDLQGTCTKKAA
Method: The procedure of A. W. Alberts et al., J. Biol. Chem. 249: 5241 (1974) measuring the quantity of ^14C sterol biosynthesis frofdm ^14C acetic acid in mouse L―M cells in culture was employed with modification. The test compound in 10 µl DMSO was added to the monolayer cultures with 5 µCi of ^14C acetate. After a 3 hour incubation, the cells were saponified and the ^14C sterol extracted and isolated by thin layer chromatography on silica gel using petroleum ether-diethyl ether-acetic acid (75:25:1). The region on the plate containing ^14C sterol was identified by staining with 12 and the ^14C content determined by liquid scintillation counting.

[3] = Stability of the hydroxy acid on standing
[4] = molecular target: T2, HMG-CoA Reductase (Rattus norvegicus, UniProt P51639); test: In vitro inhibition of HMG Coenzyme A reductase, Beg method modified by 5 min preincubation of enzyme with inhibitor; type: biochemical; conditions: modified procedure; read-out: IC50 in inhibiting HMG-CoA Reductase
T2 sequence (P51639 1-887): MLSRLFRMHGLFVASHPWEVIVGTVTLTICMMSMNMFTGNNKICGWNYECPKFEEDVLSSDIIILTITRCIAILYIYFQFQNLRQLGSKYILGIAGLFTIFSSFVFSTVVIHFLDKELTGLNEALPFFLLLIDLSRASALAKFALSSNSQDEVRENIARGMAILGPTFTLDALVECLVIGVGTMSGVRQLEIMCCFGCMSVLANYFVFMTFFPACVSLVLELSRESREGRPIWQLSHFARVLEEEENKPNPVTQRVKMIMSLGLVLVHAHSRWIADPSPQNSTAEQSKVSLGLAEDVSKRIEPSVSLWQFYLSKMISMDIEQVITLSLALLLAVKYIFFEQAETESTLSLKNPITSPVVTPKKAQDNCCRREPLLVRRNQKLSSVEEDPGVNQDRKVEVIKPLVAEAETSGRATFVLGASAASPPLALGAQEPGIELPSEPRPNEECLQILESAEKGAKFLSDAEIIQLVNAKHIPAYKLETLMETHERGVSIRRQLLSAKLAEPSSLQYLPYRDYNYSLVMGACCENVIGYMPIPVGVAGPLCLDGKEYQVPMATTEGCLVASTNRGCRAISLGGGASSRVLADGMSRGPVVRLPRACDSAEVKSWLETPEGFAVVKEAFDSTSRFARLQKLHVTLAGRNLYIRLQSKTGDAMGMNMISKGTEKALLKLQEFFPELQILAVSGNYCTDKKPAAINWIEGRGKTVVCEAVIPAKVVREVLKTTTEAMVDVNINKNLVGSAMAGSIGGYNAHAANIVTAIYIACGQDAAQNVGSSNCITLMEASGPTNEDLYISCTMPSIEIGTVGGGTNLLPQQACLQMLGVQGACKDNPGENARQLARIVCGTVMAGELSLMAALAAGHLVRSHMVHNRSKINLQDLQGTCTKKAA
Method: The method of Beg et al., FEBS Letters, 80 123 (1977) was modified slightly by incubating the enzyme with the inhibitor for five minutes before initiating the reaction with the substrate.

[5] = mouse L-M cell monolayers, 3 hour incubation with 14C acetate; read-out: IC50 in inhibiting HMG-CoA reductase

IC50 [2, 5]: 0.017 µM
Compound: CCC(C)C(=O)O[C@H]1C[C@@H](C)C[C@@H]2C=C[C@H](C)[C@H](CC[C@@H]3C[C@@H](O)CC(=O)O3)[C@@H]12 (stereo partly drawn) [Compound II]
% Inhibition ([1]; dose 0.15 mg/kg by stomach tube): 38%
% Inhibition ([1]; dose 0.6 mg/kg by stomach tube): 51%
% Inhibition ([1]; dose 1.2 mg/kg by stomach tube): 70%

stability of hydroxy acid on standing [3]: slowly reverts to the lactone
Compound: CCC(C)C(=O)OC1CC(C)CC2C=CC(C)C(CCC(O)CC(O)CC(=O)O)C21 (stereo not drawn) [Compound IV]

Compound: CCC(C)C(=O)O[C@H]1C[C@@H](C)C=C2C=C[C@H](C)[C@H](CC[C@@H]3C[C@@H](O)CC(=O)O3)[C@H]21 (stereo partly drawn) [Compound I]
IC50 ([2]; read-out: IC50 in inhibiting HMG-CoA reductase; mouse L-M cell monolayers, 3 hour incubation with 14C acetate): 0.022 µM

IC50 [2, 5]: 0.046 µM
IC50 [4]: 0.0054 µM
Compound: CC[C@H](C)C(=O)O[C@H]1CCC=C2C=C[C@H](C)[C@H](CC[C@@H]3C[C@@H](O)CC(=O)O3)[C@H]21 [ML236B, compactin, reference compound]

IC50 [4]: 0.0027 µM
Compound: CCC(C)C(=O)O[C@H]1C[C@@H](C)C[C@@H]2C=C[C@H](C)[C@H](CC[C@@H](O)C[C@@H](O)CC(=O)O)[C@@H]12 (stereo partly drawn) [sodium salt of Compound IV]
